Assay results published in patent US20230085307A1, “PYRIDAZINONE COMPOUND AND HERBICIDE” (NISSAN CHEMICAL CORPORATION, priority 2019, published 2023).

Columns and labels:
wild oat [1] = experiment: Test Example 5: herbicidal effect by foliage application, plastic box (Table 20, symbol I); assay type: in vivo, wild oat (Avena fatua); settings: 320 g/ha
Summary of the method: (§1)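 Plants sown in sterilized diluvial soil and grown 14 days in a greenhouse at 25° C to 30° C, then sprayed on the foliage with the compound's emulsion diluted in water to a predetermined herbicide amount. Injury to weeds and crops scored three weeks after application on a visual rating scale.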

barnyard grass [2] = experiment: Test Example 3: herbicidal effect by foliage application, Wagner pot (Table 18, symbol H); assay type: in vivo, barnyard grass (Echinochloa crus-galli)
Summary of the method: (§2)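 Plants were sown in alluvial soil held under 0.1–0.5 cm standing water and grown 14 days in a greenhouse at 25–30 °C. An emulsifiable formulation, water-diluted to the set dose, was then sprayed onto the foliage, and effects were scored three weeks later using previously defined criteria.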

redroot pigweed [3] = experiment: Test Example 5: herbicidal effect by foliage application, plastic box (Table 20, symbol N); assay type: in vivo, redroot pigweed (Amaranthus retroflexus); settings: 320 g/ha
Summary of the method: as §1

lambsquarters [4] = experiment: Test Example 5: herbicidal effect by foliage application, plastic box (Table 20, symbol O); assay type: in vivo, lambsquarters (Chenopodium album); settings: 320 g/ha
Summary of the method: as §1

velvetleaf [5] = experiment: Test Example 4: herbicidal effect by soil treatment (Table 19, symbol M); assay type: in vivo, velvetleaf (Abutilon theophrasti); settings: amount of applied herbicide 320 g/ha
Summary of the method: (§3)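 Seeds were sown in sterilized diluvial soil and covered with about 1.5 cm of soil. An emulsion formulation diluted with water to a predetermined herbicide amount was sprayed evenly onto the soil surface. Plants grew in a greenhouse at 25° C. to 30° C., and the effect was scored three weeks after application using criteria from an earlier test.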

Italian ryegrass [6] = experiment: Test Example 5: herbicidal effect by foliage application, plastic box (Table 20, symbol K); assay type: in vivo, Italian ryegrass (Lolium multiflorum); settings: 320 g/ha
Summary of the method: as §1

Chinese sprangletop = experiment: Test Example 3: herbicidal effect by foliage application, Wagner pot (Table 18, symbol D); assay type: in vivo, chinese sprangletop (Leptochloa chinensis)
Summary of the method: as §2

windgrass [7] = experiment: Test Example 4: herbicidal effect by soil treatment (Table 19, symbol L); assay type: in vivo, windgrass (Apera spica-venti); settings: amount of applied herbicide 320 g/ha
Summary of the method: as §3

blackgrass [8] = experiment: Test Example 5: herbicidal effect by foliage application, plastic box (Table 20, symbol J); assay type: in vivo, blackgrass (Alopecurus myosuroides); settings: 320 g/ha
Summary of the method: as §1

chickweed [9] = experiment: Test Example 5: herbicidal effect by foliage application, plastic box (Table 20, symbol P); assay type: in vivo, common chickweed (Stellaria media); settings: 320 g/ha
Summary of the method: as §1

velvetleaf [10] = experiment: Test Example 5: herbicidal effect by foliage application, plastic box (Table 20, symbol M); assay type: in vivo, velvetleaf (Abutilon theophrasti); settings: 320 g/ha
Summary of the method: as §1

southern crabgrass [11] = experiment: Test Example 5: herbicidal effect by foliage application, plastic box (Table 20, symbol F); assay type: in vivo, southern crabgrass (Digitaria ciliaris); settings: 320 g/ha
Summary of the method: as §1

wild oat [12] = experiment: Test Example 4: herbicidal effect by soil treatment (Table 19, symbol I); assay type: in vivo, wild oat (Avena fatua); settings: amount of applied herbicide 320 g/ha
Summary of the method: as §3

Italian ryegrass [13] = experiment: Test Example 4: herbicidal effect by soil treatment (Table 19, symbol K); assay type: in vivo, Italian ryegrass (Lolium multiflorum); settings: amount of applied herbicide 320 g/ha
Summary of the method: as §3

persian speedwell [14] = experiment: Test Example 4: herbicidal effect by soil treatment (Table 19, symbol R); assay type: in vivo, Persian speedwell (Veronica persica); settings: amount of applied herbicide 320 g/ha
Summary of the method: as §3

chickweed [15] = experiment: Test Example 4: herbicidal effect by soil treatment (Table 19, symbol P); assay type: in vivo, common chickweed (Stellaria media); settings: amount of applied herbicide 320 g/ha
Summary of the method: as §3

rice flat sedge = experiment: Test Example 3: herbicidal effect by foliage application, Wagner pot (Table 18, symbol E); assay type: in vivo, rice flat sedge (Cyperus iria)
Summary of the method: as §2

windgrass [16] = experiment: Test Example 5: herbicidal effect by foliage application, plastic box (Table 20, symbol L); assay type: in vivo, windgrass (Apera spica-venti); settings: 320 g/ha
Summary of the method: as §1

lambsquarters [17] = experiment: Test Example 4: herbicidal effect by soil treatment (Table 19, symbol O); assay type: in vivo, lambsquarters (Chenopodium album); settings: amount of applied herbicide 320 g/ha
Summary of the method: as §3

barnyard grass [18] = experiment: Test Example 4: herbicidal effect by soil treatment (Table 19, symbol H); assay type: in vivo, barnyard grass (Echinochloa crus-galli); settings: amount of applied herbicide 320 g/ha
Summary of the method: as §3

persian speedwell [19] = experiment: Test Example 5: herbicidal effect by foliage application, plastic box (Table 20, symbol R); assay type: in vivo, Persian speedwell (Veronica persica); settings: 320 g/ha
Summary of the method: as §1

blackgrass [20] = experiment: Test Example 4: herbicidal effect by soil treatment (Table 19, symbol J); assay type: in vivo, blackgrass (Alopecurus myosuroides); settings: amount of applied herbicide 320 g/ha
Summary of the method: as §3

green foxtail [21] = experiment: Test Example 5: herbicidal effect by foliage application, plastic box (Table 20, symbol G); assay type: in vivo, green foxtail (Setaria viridis); settings: 320 g/ha
Summary of the method: as §1

redroot pigweed [22] = experiment: Test Example 4: herbicidal effect by soil treatment (Table 19, symbol N); assay type: in vivo, redroot pigweed (Amaranthus retroflexus); settings: amount of applied herbicide 320 g/ha
Summary of the method: as §3

green foxtail [23] = experiment: Test Example 4: herbicidal effect by soil treatment (Table 19, symbol G); assay type: in vivo, green foxtail (Setaria viridis); settings: amount of applied herbicide 320 g/ha
Summary of the method: as §3

southern crabgrass [24] = experiment: Test Example 4: herbicidal effect by soil treatment (Table 19, symbol F); assay type: in vivo, southern crabgrass (Digitaria ciliaris); settings: amount of applied herbicide 320 g/ha
Summary of the method: as §3

barnyard grass [25] = experiment: Test Example 5: herbicidal effect by foliage application, plastic box (Table 20, symbol H); assay type: in vivo, barnyard grass (Echinochloa crus-galli); settings: 320 g/ha
Summary of the method: as §1

[26] = foliage application, three weeks after application
[27] = amount of applied herbicide 320 g/ha
[28] = foliage application after 14-day growth, evaluated three weeks after application

CON=C(C)c1ccc(-c2sc3cc(F)ccc3c2-c2c(O)c(C)nn(C)c2=O)cc1 [3-017]
I: wild oat, herbicidal effect grade (wild oat [1]; [26]): 1 (Herbicidal rate of 5% or more and less than 20%) | herbicidal effect on H: barnyard grass (barnyard grass [2]; [27]): 3 (Herbicidal rate of 40% or more and less than 70%) | N: redroot pigweed, herbicidal effect grade (redroot pigweed [3]; [26]): 5 (Herbicidal rate of 90% or more (almost completely withered)) | O: lambsquarters, herbicidal effect grade (lambsquarters [4]; [26]): 5 (Herbicidal rate of 90% or more (almost completely withered)) | herbicidal effect, M: velvetleaf (velvetleaf [5]): 0 (Herbicidal rate of 5% or less (almost no effect)) | K: Italian ryegrass, herbicidal effect grade (Italian ryegrass [6]; [26]): 4 (Herbicidal rate of 70% or more and less than 90%) | herbicidal effect on D: Chinese sprangletop (Chinese sprangletop; [27]): 0 (Herbicidal rate of 5% or less (almost no effect)) | herbicidal effect, L: windgrass (windgrass [7]): 0 (Herbicidal rate of 5% or less (almost no effect)) | J: blackgrass, herbicidal effect grade (blackgrass [8]; [26]): 3 (Herbicidal rate of 40% or more and less than 70%) | P: chickweed, herbicidal effect grade (chickweed [9]; [26]): 5 (Herbicidal rate of 90% or more (almost completely withered)) | M: velvetleaf, herbicidal effect grade (velvetleaf [10]; [26]): 3 (Herbicidal rate of 40% or more and less than 70%) | F: southern crabgrass, herbicidal effect grade (southern crabgrass [11]; [26]): 3 (Herbicidal rate of 40% or more and less than 70%) | herbicidal effect, I: wild oat (wild oat [12]): 0 (Herbicidal rate of 5% or less (almost no effect)) | herbicidal effect, K: Italian ryegrass (Italian ryegrass [13]): 3 (Herbicidal rate of 40% or more and less than 70%) | herbicidal effect, R: persian speedwell (persian speedwell [14]): 3 (Herbicidal rate of 40% or more and less than 70%) | herbicidal effect, P: chickweed (chickweed [15]): 1 (Herbicidal rate of 5% or more and less than 20%) | herbicidal effect on E: rice flat sedge (rice flat sedge; [27]): 0 (Herbicidal rate of 5% or less (almost no effect)) | L: windgrass, herbicidal effect grade (windgrass [16]; [26]): 2 (Herbicidal rate of 20% or more and less than 40%) | herbicidal effect, O: lambsquarters (lambsquarters [17]): 4 (Herbicidal rate of 70% or more and less than 90%) | herbicidal effect, H: barnyard grass (barnyard grass [18]): 0 (Herbicidal rate of 5% or less (almost no effect)) | R: persian speedwell, herbicidal effect grade (persian speedwell [19]; [26]): 5 (Herbicidal rate of 90% or more (almost completely withered)) | herbicidal effect, J: blackgrass (blackgrass [20]): 0 (Herbicidal rate of 5% or less (almost no effect)) | G: green foxtail, herbicidal effect grade (green foxtail [21]; [26]): 5 (Herbicidal rate of 90% or more (almost completely withered)) | herbicidal effect, N: redroot pigweed (redroot pigweed [22]): 5 (Herbicidal rate of 90% or more (almost completely withered)) | herbicidal effect, G: green foxtail (green foxtail [23]): 0 (Herbicidal rate of 5% or less (almost no effect)) | herbicidal effect, F: southern crabgrass (southern crabgrass [24]): 0 (Herbicidal rate of 5% or less (almost no effect)) | H: barnyard grass, herbicidal effect grade (barnyard grass [25]; [26]): 2 (Herbicidal rate of 20% or more and less than 40%)

CCCC(=O)Oc1c(C)nn(C)c(=O)c1-c1c(-c2ccc(F)cc2)sc2c(F)cccc12 [4-002]
herbicidal effect on I: wild oat (evaluation grade 0-5) (wild oat [1]; [28]): 0 (Herbicidal rate of 5% or less (almost no effect)) | herbicidal effect on barnyard grass (H) (barnyard grass [2]; 320 g/ha): 5 (Herbicidal rate of 90% or more (almost completely withered)) | herbicidal effect on N: redroot pigweed (evaluation grade 0-5) (redroot pigweed [3]; [28]): 5 (Herbicidal rate of 90% or more (almost completely withered)) | herbicidal effect on O: lambsquarters (evaluation grade 0-5) (lambsquarters [4]; [28]): 3 (Herbicidal rate of 40% or more and less than 70%) | Herbicidal effect by soil treatment, M: velvetleaf (velvetleaf [5]): 2 (Herbicidal rate of 20% or more and less than 40%) | herbicidal effect on K: Italian ryegrass (evaluation grade 0-5) (Italian ryegrass [6]; [28]): 3 (Herbicidal rate of 40% or more and less than 70%) | herbicidal effect on Chinese sprangletop (D) (Chinese sprangletop; 320 g/ha): 2 (Herbicidal rate of 20% or more and less than 40%) | Herbicidal effect by soil treatment, L: windgrass (windgrass [7]): 0 (Herbicidal rate of 5% or less (almost no effect)) | herbicidal effect on J: blackgrass (evaluation grade 0-5) (blackgrass [8]; [28]): 1 (Herbicidal rate of 5% or more and less than 20%) | herbicidal effect on P: chickweed (evaluation grade 0-5) (chickweed [9]; [28]): 5 (Herbicidal rate of 90% or more (almost completely withered)) | herbicidal effect on M: velvetleaf (evaluation grade 0-5) (velvetleaf [10]; [28]): 5 (Herbicidal rate of 90% or more (almost completely withered)) | herbicidal effect on F: southern crabgrass (evaluation grade 0-5) (southern crabgrass [11]; [28]): 0 (Herbicidal rate of 5% or less (almost no effect)) | Herbicidal effect by soil treatment, I: wild oat (wild oat [12]): 0 (Herbicidal rate of 5% or less (almost no effect)) | Herbicidal effect by soil treatment, K: Italian ryegrass (Italian ryegrass [13]): 0 (Herbicidal rate of 5% or less (almost no effect)) | Herbicidal effect by soil treatment, R: persian speedwell (persian speedwell [14]): 0 (Herbicidal rate of 5% or less (almost no effect)) | Herbicidal effect by soil treatment, P: chickweed (chickweed [15]): 0 (Herbicidal rate of 5% or less (almost no effect)) | herbicidal effect on rice flat sedge (E) (rice flat sedge; 320 g/ha): 5 (Herbicidal rate of 90% or more (almost completely withered)) | herbicidal effect on L: windgrass (evaluation grade 0-5) (windgrass [16]; [28]): 0 (Herbicidal rate of 5% or less (almost no effect)) | Herbicidal effect by soil treatment, O: lambsquarters (lambsquarters [17]): 3 (Herbicidal rate of 40% or more and less than 70%) | Herbicidal effect by soil treatment, H: barnyard grass (barnyard grass [18]): 4 (Herbicidal rate of 70% or more and less than 90%) | herbicidal effect on R: persian speedwell (evaluation grade 0-5) (persian speedwell [19]; [28]): 4 (Herbicidal rate of 70% or more and less than 90%) | Herbicidal effect by soil treatment, J: blackgrass (blackgrass [20]): 0 (Herbicidal rate of 5% or less (almost no effect)) | herbicidal effect on G: green foxtail (evaluation grade 0-5) (green foxtail [21]; [28]): 4 (Herbicidal rate of 70% or more and less than 90%) | Herbicidal effect by soil treatment, N: redroot pigweed (redroot pigweed [22]): 3 (Herbicidal rate of 40% or more and less than 70%) | Herbicidal effect by soil treatment, G: green foxtail (green foxtail [23]): 2 (Herbicidal rate of 20% or more and less than 40%) | Herbicidal effect by soil treatment, F: southern crabgrass (southern crabgrass [24]): 0 (Herbicidal rate of 5% or less (almost no effect)) | herbicidal effect on H: barnyard grass (evaluation grade 0-5) (barnyard grass [25]; [28]): 4 (Herbicidal rate of 70% or more and less than 90%)
